Reference: patent US10781224B2, “Bis(oxymethyl)phosphinic acid and biogenic metal salts thereof as regulators of plant growth and development” (priority 2016, dated 2020)

Tested on: winter wheat (Vershin variety)
Assay: Winter wheat seed treatment with BHMPA salts: germinating power (length and mass of roots and sprouts)
Format: in vivo
Method: Experimental versions—soaking seeds in BHMPA solutions and solutions of BHMPA Ca, Mg, Na, Co, Mn, Cu, and Zn salts at 1·10^−6-1·10^−12% concentrations (doses). The studies were conducted in laboratory in Petri dishes; seed bed—two layers of filter paper. 50 seeds soaked in water (control) and in the solutions of the tested compounds (experimental) were placed into each dish. Wheat, corn, and rice seeds were exposed for one hour.
Seed germination energy and rate were calculated in percent as an arithmetic mean of the four experimental results (germination energy on the 4th day, wheat germination on the 8th day, rice and corn germination—on the 7th day). Germination was determined based on the germinating power indicators (length of the roots and sprouts and their wet and dry mass per 100 shoots).
The effect of pre-sowing seed treatment with the claimed BHMPA salts of biogenic metals was studied on winter wheat (Vershin variety), corn (Krasnodar 385 MV variety), and rice (Diamant variety).
The above data describe the seed viability only at the initial stage of germination, while the germination ability at the later stage of germination is defined by the initial germinating power. The method for the determination of the germinating power comprises measuring the height of the sprouts and primary roots, as well as the biomass and the dry mass thereof per 100 seedlings. [M. A. Kartuzova. Initial Germinating Power as Method of Biological Assessment of Seed Quality. Selection and Seed Farming, #2, 1953].

[1] = comparative study, 1·10^−10% solution

## O.O.O=P([O-])(CO)CO.O=P([O-])(CO)CO.[Co+2] [Co-salt, Cobalt BHMPA Salt]
1·10^−6% solution
  Length, root: 6.0 cm
  Length, root, + % to control: −5%
  Length, sprout: 5.1 cm
  Length, sprout, + % to control: −4%
  Mass, dry, root: 0.43 g/100 plantlings
  Mass, dry, root, + % to control: −6.5%
  Mass, dry, sprout: 0.41 g/100 plantlings
  Mass, dry, sprout, + % to control: −9%
  Mass, wet, root: 2.99 g/100 plantlings
  Mass, wet, root, + % to control: 3.5%
  Mass, wet, sprout: 3.30 g/100 plantlings
  Mass, wet, sprout, + % to control: −3.5%
1·10^−7% solution
  Length, root: 6.3 cm
  Length, root, + % to control: 0%
  Length, sprout: 5.4 cm
  Length, sprout, + % to control: 2%
  Mass, dry, root: 0.50 g/100 plantlings
  Mass, dry, root, + % to control: 9%
  Mass, dry, sprout: 0.45 g/100 plantlings
  Mass, dry, sprout, + % to control: 0%
  Mass, wet, root: 3.06 g/100 plantlings
  Mass, wet, root, + % to control: 6%
  Mass, wet, sprout: 3.47 g/100 plantlings
  Mass, wet, sprout, + % to control: 1.5%
1·10^−8% solution
  Length, root: 6.4 cm
  Length, root, + % to control: 1.6%
  Length, sprout: 5.5 cm
  Length, sprout, + % to control: 4%
  Mass, dry, root: 0.54 g/100 plantlings
  Mass, dry, root, + % to control: 17%
  Mass, dry, sprout: 0.53 g/100 plantlings
  Mass, dry, sprout, + % to control: 18%
  Mass, wet, root: 3.29 g/100 plantlings
  Mass, wet, root, + % to control: 14%
  Mass, wet, sprout: 3.74 g/100 plantlings
  Mass, wet, sprout, + % to control: 9%
1·10^−9% solution
  Length, root: 6.5 cm
  Length, root, + % to control: 3%
  Length, sprout: 5.7 cm
  Length, sprout, + % to control: 7.5%
  Mass, dry, root: 0.55 g/100 plantlings
  Mass, dry, root, + % to control: 19.5%
  Mass, dry, sprout: 0.57 g/100 plantlings
  Mass, dry, sprout, + % to control: 27%
  Mass, wet, root: 3.35 g/100 plantlings
  Mass, wet, root, + % to control: 16%
  Mass, wet, sprout: 4.04 g/100 plantlings
  Mass, wet, sprout, + % to control: 18%
1·10^−10% solution
  Length, root: 6.6 cm
  Length, root, + % to control: 5%
  Length, sprout: 6.1 cm
  Length, sprout, + % to control: 15%
  Mass, dry, root: 0.56 g/100 plantlings
  Mass, dry, root, + % to control: 22%
  Mass, dry, sprout: 0.67 g/100 plantlings
  Mass, dry, sprout, + % to control: 49%
  Mass, wet, root: 3.57 g/100 plantlings
  Mass, wet, root, + % to control: 23.5%
  Mass, wet, sprout: 4.18 g/100 plantlings
  Mass, wet, sprout, + % to control: 22%
1·10^−11% solution
  Length, root: 6.5 cm
  Length, root, + % to control: 3%
  Length, sprout: 5.9 cm
  Length, sprout, + % to control: 11%
  Mass, dry, root: 0.54 g/100 plantlings
  Mass, dry, root, + % to control: 17%
  Mass, dry, sprout: 0.56 g/100 plantlings
  Mass, dry, sprout, + % to control: 24%
  Mass, wet, root: 3.33 g/100 plantlings
  Mass, wet, root, + % to control: 15%
  Mass, wet, sprout: 3.78 g/100 plantlings
  Mass, wet, sprout, + % to control: 10.5%
1·10^−12% solution
  Length, root: 6.2 cm
  Length, root, + % to control: −1.5%
  Length, sprout: 5.4 cm
  Length, sprout, + % to control: 2%
  Mass, dry, root: 0.52 g/100 plantlings
  Mass, dry, root, + % to control: 13%
  Mass, dry, sprout: 0.48 g/100 plantlings
  Mass, dry, sprout, + % to control: 7%
  Mass, wet, root: 3.06 g/100 plantlings
  Mass, wet, root, + % to control: 6%
  Mass, wet, sprout: 3.49 g/100 plantlings
  Mass, wet, sprout, + % to control: 2%
[1]
  Length, root: 10.4 cm
  Length, root, + % to control: 20%
  Length, sprout: 7.4 cm
  Length, sprout, + % to control: 19%
  Mass, dry, root: 0.68 g/100 plantlings
  Mass, dry, root, + % to control: 10%
  Mass, dry, sprout: 0.55 g/100 plantlings
  Mass, dry, sprout, + % to control: 8%
  Mass, wet, root: 5.97 g/100 plantlings
  Mass, wet, root, + % to control: 65%
  Mass, wet, sprout: 5.16 g/100 plantlings
  Mass, wet, sprout, + % to control: 30%
